The source made the active and inactive calls. The rule behind the calls is not given here.
Assays:
[1] = Cytotoxicity against mouse MC3T3-E1 cells at 30 uM after 6 days; type: cell-based; conditions: mc3t3-e1, 144 h
RAW264 = assay: Induction of osteoclast differentiation in mouse RAW264 cells assessed as TRAP activity; type: functional, cell-based
MC3T3-E1 [2] = assay: Induction of osteogenesis in mouse MC3T3-E1 cells assessed as cell differentiation at 30 uM after 6 days by alkaline phosphatase activity assay; type: functional, cell-based
MC3T3-E1 [3] = assay: Induction of cells differentiation in mouse MC3T3-E1 cells assessed as increase in osteocalcin production after 14 days by EIA; type: functional, cell-based
MC3T3-E1 [4] = assay: Induction of cells differentiation in mouse MC3T3-E1 cells assessed as increase in mineralization after 14 days by Alizarin Red S staining; type: functional, cell-based
MC3T3-E1 [5] = assay: Induction of osteogenesis in mouse MC3T3-E1 cells assessed as increase in alkaline phosphatase activity after 6 days; type: functional, cell-based
MC3T3-E1 [6] = assay: Induction of osteogenesis in mouse MC3T3-E1 cells assessed as increase in alkaline phosphatase activity at 30 uM after 6 days in presence of 50 ng/ml noggin BMP antagonist; type: functional, cell-based
Mus musculus = organism: Mus musculus; assay: Induction of osteogenesis in mouse primary calvarial cells assessed as increase in alkaline phosphatase activity measured by ALP staining after 14 days; type: functional
MC3T3-E1 [7] = assay: Induction of osteogenesis in mouse MC3T3-E1 cells assessed as increase in alkaline phosphatase activity at 30 uM after 6 days in presence of 0.1 uM LDN-193289 BMP receptor kinase inhibitor; type: functional, cell-based
MC3T3-E1 [8] = assay: Induction of osteogenesis in mouse MC3T3-E1 cells assessed as increase in alkaline phosphatase activity at 30 uM after 6 days in presence of 5 uM SB203580 p38 MAPK inhibitor; type: functional, cell-based

| SMILES | Activity [1] | Activity (RAW264) | Activity (MC3T3-E1 [2]) | Activity (MC3T3-E1 [3]) | Activity (MC3T3-E1 [4]) | Activity (MC3T3-E1 [5]) | Activity (MC3T3-E1 [6]) | Activity (Mus musculus) | Activity (MC3T3-E1 [7]) | Activity (MC3T3-E1 [8]) |
| --- | --- | --- | --- | --- | --- | --- | --- | --- | --- | --- |
| C[C@H](O)CCc1ccc(O)cc1 | Non-toxic | inactive | inactive |  |  |  |  |  |  |  |
| OC[C@H]1O[C@@H](Oc2ccc3cc2Oc2ccc(cc2)CCCC[C@@H](O)CC3)[C@H](O)[C@@H](O)[C@@H]1O [ACEROSIDE B1] | Non-toxic | inactive | Active | Active | Dose-dependent effect |  |  |  |  |  |
| OC[C@H]1O[C@H](Oc2ccc3cc2Oc2ccc(cc2)CC[C@@H](O)CCCC3)[C@H](O)[C@@H](O)[C@@H]1O [ACEROSIDE I] | Non-toxic | inactive | Active | Active | Dose-dependent effect |  |  |  |  |  |
| Oc1ccc2cc1Oc1ccc(cc1)CCCC[C@@H](O)CC2 | Non-toxic | inactive | Active | Active | Dose-dependent effect |  |  |  |  |  |
| Oc1ccc2cc1Oc1ccc(cc1)CC[C@H](O)CCCC2 [ACEROGENIN A] | Non-toxic | inactive | Active | Active | Dose-dependent effect | Dose-dependent effect | inactive | Active | inactive | inactive |
| Oc1ccc(CCCC[C@@H](O)CCc2ccc(O)cc2)cc1 | Toxic | inactive |  |  |  |  |  |  |  |  |
| Oc1cc(O)c2c(c1)O[C@H](c1ccc(O)c(O)c1)[C@@H](O)C2 [CIANIDANOL] | Non-toxic | inactive |  |  |  |  |  |  |  |  |
| OC[C@@]1(O)CO[C@@H](OC[C@H]2O[C@@H](O[C@@H]3CCCCc4ccc(O)c(c4)Oc4ccc(cc4)CC3)[C@H](O)[C@@H](O)[C@@H]2O)[C@@H]1O [ACEROSIDE III] | Non-toxic | inactive | Active |  |  |  |  |  |  |  |

Source: ChEMBL document CHEMBL1777809, “Osteogenic activity of diphenyl ether-type cyclic diarylheptanoids derived from Acer nikoense” (Bioorg Med Chem Lett, 2011)
